Data: PMC7939532 (Oncotarget, 2021)
Values joined by “and” are separate entries in the source; they are usually repeats but may differ in a detail not shown here. Equal entries are not always repeated. Where two headings read alike, the source gives them in different places. Square brackets hold non-standard residues; d marks the D form. Primed or numbered codes have the meaning given here. Ends that are not written are not given here. Peptide text beside a SMILES is read from it. * marks the point of attachment. d1Nal = N[C@H](Cc1cccc2ccccc12)C(=O)O; Palmitoyl = CCCCCCCCCCCCCCCC(=O)*; PEG2′ = not defined here

Experiments:
Ghrelin receptor [1] = target: T1, Ghrelin receptor (Homo sapiens, UniProt Q92847); experiment: Inositol phosphate turnover assay in COS-7 cells transfected with the Ghrelin receptor; details: for x-fold over No. 2: EC50 relative to peptide 2; for Δeff (%): efficacy, mean ± SEM of |Efficacymax - Efficacymin|
T1 sequence (Q92847 whole entry, species assumed): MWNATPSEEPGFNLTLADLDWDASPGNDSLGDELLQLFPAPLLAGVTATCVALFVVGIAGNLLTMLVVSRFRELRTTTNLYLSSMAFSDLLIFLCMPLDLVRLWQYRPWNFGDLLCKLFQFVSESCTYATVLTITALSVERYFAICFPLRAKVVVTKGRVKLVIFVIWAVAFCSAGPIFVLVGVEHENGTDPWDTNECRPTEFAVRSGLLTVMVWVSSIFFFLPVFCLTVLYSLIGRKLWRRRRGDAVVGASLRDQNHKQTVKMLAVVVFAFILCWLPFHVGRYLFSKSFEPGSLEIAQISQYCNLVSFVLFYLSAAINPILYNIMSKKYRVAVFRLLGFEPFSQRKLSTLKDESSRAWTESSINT
Procedure: Data were analyzed with GraphPad Prism 6.0 program (GraphPad Software, San Diego, CA, USA). EC50, pEC50 and Emax values were obtained from concentration–response curves. All signal transduction assays were performed in duplicate and repeated at least two times independently.

Ghrelin receptor [2] = target: T1, Ghrelin receptor; experiment: Competitive binding assay with ^125I-His-Ghrelin in COS-7 cells stably transfected with the Ghrelin receptor; parameters: expressed in transfected cells; host or cells: COS-7; details: for x-fold over Ghrelin: Ki relative to Ghrelin; for x-fold over 2: Ki relative to peptide 2; for Ki: competition with ^125I-His-Ghrelin, read-out: Ki ± SD
Procedure: Each experiment was performed in triplicates. IC50 values of the binding curves were calculated by nonlinear regression on a sigmoidal dose-response based model by using program GraphPad Prism 6.0. Ki values were calculated by Cheng-Prusoff equation.

DU-145 tumors [3] = experiment: Biodistribution of 10c in DU-145 tumor bearing mice with blocking; assay type: in vivo; details: one hour after injection
Procedure: (§1) The tumor mice with xenotransplanted PC-3 or DU-145 tumors were used when the tumors reached 0.54 ± 0.34 g or 0.18 ± 0.09 g (mean ± SD, n = 9), respectively. […] The mice were sacrificed one hour after injection and the organs and tissues were extracted. The activity measurements and calculations were carried out as described for the rat biodistribution experiments.

PC-3 tumors [4] = system: PC-3 tumors; parameters: species or system mice; details: mouse, in vivo
Procedure: (§2) Anesthetized, spontaneously breathing animals were allowed to stabilize for 10 min after preparation. The animals were positioned on a heated bed to maintain the body temperature at 37°C. The PET studies were carried out with a NanoScanPET/CT (Mediso, Hungary) or a microPET P4® (Siemens preclinical solutions, Knoxville, TN, USA). The activity of the injection solution was measured in a well counter (Isomed 2000, Dresden, Germany) cross-calibrated to the PET scanners. A 10 min transmission scan was recorded during this time for each subject by using a rotating point source of ^57Co (microPET). The transmission scans were used to correct the emission scan for γ-ray attenuation caused by body tissues and supporting structures; it was also used to demarcate the body field for image registration. […] At the end of the experiment, the animals were deeply anesthetized and sacrificed by an intravenous injection of potassium chloride. Acquisition was performed in 3D list mode. Emission data were collected continuously. The list mode data were sorted into sinograms with 32 or 38 frames (15 × 10 s, 5 × 30 s, 5 × 60 s, 4 × 300 s, 3 × 600 s, or 9 × 600 s). The data were decay-, scatter-, and attenuation-corrected. The frames from the microPET were reconstructed by Ordered Subset Expectation Maximization applied to 3D sinograms (OSEM3D) with 14 subsets, 15 OSEM3D iterations, 25 maximum a posteriori (MAP) iterations, and 1.8 mm resolution using the […] algorithm (Siemens Preclinical Solutions, Knoxville, TN, USA). The voxel size was 0.07 by 0.07 by 0.12 cm. The PET images measured with the nanoScanPET/CT were reconstructed using a three-dimensional Ordered Subsets Expectation Maximization (3D-OSEM) algorithm (Tera-Tomo, Mediso Ltd., Hungary) into dynamic frames as described and with a voxel size of 0.05 cm. No correction for partial volume effects was applied. The image volume data were converted to Siemens ECAT7 format for further processing and were then analyzed using the ROVER software (ABX GmbH, Radeberg, Germany). Masks for defining three-dimensional regions of interest (ROI) were set and the ROI's were defined by thresholding and ROI time activity curves (TAC) were derived for the subsequent data analysis. […] The ROIs were so determined that no surrounding tissue was included. The ROI data and TAC were further analyzed using R (R is available as Free Software under the terms of the Free Software Foundation's GNU General Public License in source code form) and especially developed program packages (Jörg van den Hoff, Frank Hofheinz, Helmholtz-Zentrum Dresden-Rossendorf, Dresden, Germany).

DU-145 tumors [5] = system: DU-145 tumors; parameters: species or system mice; details: mouse, in vivo
Procedure: as §2

[6] = parameters: species or system mice; details: mouse, in vivo
Procedure: as §1

[7] = rat, in vivo
Procedure: Biodistribution in distinct organs and tissues of healthy rats was measured at 5 and 60 min after single intravenous injection of the ^68Ga- or ^64Cu-radiotracers 9b-c, 10b-c, and 15b-c in rats (see ^68Ga-tracers in Figure 3 and ^64Cu-tracers in Figure 4).
The molar activity was approximately 30 GBq × mmol^–1 at the time of injection (Table 3). […] Animals were sacrificed at 5 and 60 min post injection. Blood and the major organs were collected, weighed, and counted in a Wallac WIZARD automatic gamma counter (PerkinElmer, Germany). The radioactivity of the samples was decay-corrected and calibrated by comparing the counts in tissue with the counts in aliquots of the injected radiotracer that had been measured in the gamma counter at the same time. The activity amount in organs that could be completely extracted was expressed as percent of injected dose (% ID). The activity concentrations in tissues were calculated as standardized uptake values [SUV = (activity × mL^–1 tissue)/(injected activity/body weight), mL × g^–1)]. The SUV was used for better comparison within animals of different size and weight and with other species and to compare the biodistribution and the PET data.

PC-3 tumors [8] = experiment: Biodistribution of 10c in PC-3 tumor bearing mice with blocking; assay type: in vivo; details: one hour after injection
Procedure: as §1

[9] = parameters: species or system rats; details: rat, in vivo
[10] = COS-7 cells transfected with the Ghrelin receptor
[11] = inverse agonist potency, COS-7 cells transfected with the Ghrelin receptor
[12] = EC50, inverse agonist potency, COS-7 cells transfected with the Ghrelin receptor
[13] = pEC50 ± SEM, COS-7 cells transfected with the Ghrelin receptor

Molecule | pEC50 ± SEM (Ghrelin receptor [1]; [10]) | x-fold over No. 2 (Ghrelin receptor [1]) | Δeff (%) (Ghrelin receptor [1]) | EC50 (Ghrelin receptor [1]; [11]) [µM] | further results
K[^natGa]Ga-NODAGA-K-(D-1-Nal)-FwLK(Palm)-NH2 [16a] | 7.9 ± 0.07 | 3 | 90 ± 4% | 0.0136 | –
K-(D-1-Nal)-FwLK(PEG2)-NH2 (K[d1Nal]F[dW]LK(PEG2′)-NH2) [compound 7] | 6.8 ± 0.10 | – | – | 0.166 | –
K-(D-1-Nal)-FwLK(PEG2)-NH2 [compound 7] | – | 37 | 61 ± 3% | – | –
[^natGa]Ga-NODAGA-KK-(D-1-Nal)-FwLL-NH2 [10a] | 7.5 ± 0.07 | 8 | 98% and 98 ± 4% | 0.0347 | x-fold over Ghrelin (Ghrelin receptor [2]): 57; x-fold over 2 (Ghrelin receptor [2]): 6; Ki (Ghrelin receptor [2]): 0.0303 ± 0.0075 µM
[^natGa]Ga-NODAGA-K-(D-1-Nal)-FwLL-NH2 [9a] | 7.2 ± 0.10 | 14 | 88% and 88 ± 8% | 0.0648 | –
PEG2-KK-(D-1-Nal)-FwLL-NH2 [compound 8] | 6.3 ± 0.08 | 111 | 85 ± 3% | 0.499 | –
CCCCCCCCCCCCCCCC(=O)N[C@@H](CCCCN)C(=O)N[C@@H](CCCCN)C(=O)N[C@H](Cc1cccc2ccccc12)C(=O)N[C@@H](Cc1ccccc1)C(=O)N[C@H](Cc1c[nH]c2ccccc12)C(=O)N[C@@H](CC(C)C)C(=O)N[C@@H](CC(C)C)C(N)=O [compound 6, Palm-KK-(D-1-Nal)-FwLL-NH2] (Palmitoyl-KK[d1Nal]F[dW]LL-NH2) | – | 2 | 86 ± 2% | – | EC50 (Ghrelin receptor [1]; [12]): 0.011 µM
Palm-KK-(D-1-Nal)-FwLK[^natGa]Ga-NODAGA-NH2 [17a] | 6.2 ± 0.10 | 132 | 85 ± 6% | 0.592 | –
[^64Cu]Cu-NODAGA-NH-K-K-(D-1-NaI)-F-w-L-L-NH2 [10c] | – | – | – | – | tumor to muscle ratio as percent of control (DU-145 tumors [3]; blocked with 1 mg/kg Ghrelin): 71.0 ± 10.7%; tumor to muscle ratio as percent of control (DU-145 tumors [3]; blocked with 1 mg/kg KKD): 59.7 ± 30.2%; activity concentration in tumor (PC-3 tumors [4]): 2.02 ± 0.28 SUV; activity concentration in tumor (PC-3 tumors [4]; 1 mg/kg): 0.99 ± 0.05 SUV; activity concentration in tumor (DU-145 tumors [5]): 1.34 ± 0.24 SUV; activity concentration in tumor (DU-145 tumors [5]; 1 mg/kg): 0.68 ± 0.05 SUV; specific tumor uptake relative to the compound of Charron et al. [6]: approximately 10 times; uptake in organs and tissues [6]: > 0.3 SUV; brain uptake [7]: 0.06-0.1 SUV; tumor to muscle ratio as percent of control (PC-3 tumors [8]; blocked with 1 mg/kg Ghrelin): 83.4 ± 18.4%; tumor to muscle ratio as percent of control (PC-3 tumors [8]; blocked with 1 mg/kg KKD): 51.2 ± 4.5%; original compound found in the kidneys [9]: 1%; original compound found in the liver [9]: 14%; original compound found in the urine [9]: 6%
[^natGa]Ga-NODAGA-K(Palm)-K-(D-1-Nal)-FwLL-NH2 [12a] | 7.7 ± 0.06 | 5 | 92% and 92 ± 4% | 0.0203 | x-fold over Ghrelin (Ghrelin receptor [2]): 126; x-fold over 2 (Ghrelin receptor [2]): 14; Ki (Ghrelin receptor [2]): 0.0669 ± 0.0257 µM
CC(C)C[C@H](NC(=O)[C@@H](Cc1c[nH]c2ccccc12)NC(=O)[C@H](Cc1ccccc1)NC(=O)[C@@H](Cc1cccc2ccccc12)NC(=O)[C@@H](N)CCCCN)C(=O)N[C@@H](CCCCN)C(N)=O [compound 3, K-(D-1-Nal)-FwLK-NH2] (H-K[d1Nal]F[dW]LK-NH2) | – | – | 42% and 42 ± 1% | – | EC50 (Ghrelin receptor [1]; [12]): 0.162 µM; EC50 (Ghrelin receptor [1]; [13]): 0.158 µM
Palm-K[^natGa]Ga-NODAGA-K-(D-1-Nal)-FwLL-NH2 [13a] | 7.5 ± 0.06 | 6 | 92% and 92 ± 3% | 0.0287 | –
CC(C)C[C@H](NC(=O)[C@H](CC(C)C)NC(=O)[C@@H](Cc1c[nH]c2ccccc12)NC(=O)[C@H](Cc1ccccc1)NC(=O)[C@@H](Cc1cccc2ccccc12)NC(=O)[C@H](CCCCN)NC(=O)[C@@H](N)CCCCN)C(N)=O [compound 4, KK-(D-1-Nal)-FwLL-NH2] (H-KK[d1Nal]F[dW]LL-NH2) | – | – | 63% and 63 ± 2% | – | EC50 (Ghrelin receptor [1]; [12]): 0.013 µM; EC50 (Ghrelin receptor [1]; [13]): 0.0126 µM
CCCCCCCCCCCCCCCC(=O)NCCCC[C@H](NC(=O)[C@H](CC(C)C)NC(=O)[C@@H](Cc1c[nH]c2ccccc12)NC(=O)[C@H](Cc1ccccc1)NC(=O)[C@@H](Cc1cccc2ccccc12)NC(=O)[C@@H](N)CCCCN)C(N)=O [compound 5] (H-K[d1Nal]F[dW]LK(Palmitoyl)-NH2) | – | – | 85% and 85 ± 2% | – | EC50 (Ghrelin receptor [1]; [12]): 0.0035 µM; EC50 (Ghrelin receptor [1]; [13]): 0.00316 µM
PEG2-K[^natGa]Ga-NODAGA-K-(D-1-Nal)-FwLL-NH2 [14a] | – | > 1000 | – | > 1 | EC50 (Ghrelin receptor [1]; value given in the text): 1.8 ± 0.6 µM
K(Palm)-K-(D-1-Nal)-FwLK[^natGa]Ga-NODAGA-NH2 [18a] | 6.6 ± 0.10 | 59 | 75 ± 6% | 0.267 | –
[^natGa]Ga-NODAGA-KK-(D-1-Nal)-FwLK(Palm)-NH2 [15a] | 7.8 ± 0.05 | 4 | 89 ± 3% | 0.0165 | x-fold over Ghrelin (Ghrelin receptor [2]): 21; x-fold over 2 (Ghrelin receptor [2]): 2; Ki (Ghrelin receptor [2]): 0.011 ± 0.0043 µM
